Results published in patent US6589963B2, “Heterocyclic compounds and salts thereof and medicinal use of the same” (Kyoto Pharmaceutical Industries, Ltd., priority 1999, dated 2003).

Key:
3T3-L1 cells = assay: Triglyceride accumulation promoting action in 3T3-L1 cells; type: cell-based; conditions: 10^−7 M test compound with 10 ng/ml insulin, 4 days; relative to control
Protocol: A culture medium of 80% confluent 3T3-L1 cells was removed and the cells were dissociated with 0.25% trypsin-EDTA solution. 5% FBS-DMEM (the same amount as the removed medium) was added and the obtained cell suspension was centrifuged at 25° C., 100×g for 1 min to give cell sediment and the supernatant was removed. The cells were re-suspended in a suitable amount of 5% FBS-DMEM medium and the cells were counted. 5% FBS-DMEM medium was added to adjust the concentration to 1×10^5 cells/ml and the mixture was dispensed by 1 ml to a 24 well plate. The cells were cultured with aeration of 5% CO2 at 37° C. for 2 days. Upon confirmation of a post-confluent state, the culture supernatant was changed to a medium containing 0.5 mM-IBMX, and the cells were cultured for 2 days. Then, the medium was changed to a medium containing 10 ng/ml insulin and 10^−7 M test compound and the cells were cultured further for 4 days. After removing the culture supernatant, the cells were lysed in a 0.1% SDS solution and the triglyceride amount was measured. The triglyceride accumulation (%) due to the potentiation of insulin activity by the test compound was calculated from the following formula.
[(triglyceride amount with addition of test compound−triglyceride amount of control)/triglyceride amount of control]×100

male KK-A^y mice [1] = assay: Hypoglycemic action and hypoinsulinemic action in insulin resistant diabetic mouse; type: in vivo; conditions: 10 mg/kg orally once a day for 4 days, 24 hours after final administration, non-fasting
Protocol: Blood was drawn from the tail vein of 12-week-old male KK-A^y mice under a non-fasting state, and the glucose level in the plasma was measured using a commercially available assay kit (glucose CII-test WAKO, Wako Pure Chemical Industries, Ltd.). The mice were grouped (5 mice per group) into a control group and an administration group, such that the mean glucose level in the plasma and the average body weight of each group, as well as the standard deviation thereof were nearly the same. The test compound (10 mg/kg) was suspended in 5% aqueous gum arabic solution and orally administered once a day to the administration group for 4 days from the next day. The 5% aqueous gum arabic solution was orally administered to the control group. Blood was drawn from the tail vein under a non-fasting state 24 hours after the final administration. The concentrations of plasma glucose and plasma insulin were measured.

male KK-A^y mice [2] = assay: Hypoglycemic action (method A); type: in vivo, mouse; conditions: 4 consecutive days, non-fasting, about 24 hours after final administration, vs control group
male KK-A^y mice [3] = assay: Hypotriglyceridemic action; type: in vivo, mouse; conditions: 4 consecutive days, non-fasting, about 24 hours after final administration, vs control group
Protocol: The triglyceride level in the plasma was measured using a commercially available assay kit (triglyceride G-test WAKO, Wako Pure Chemical Industries, Ltd.). The mice were grouped (5 mice per group) into a control group and an administration group, such that the mean and the standard deviation of the triglyceride level in the plasma of each group were nearly the same. Each test compound was suspended or dissolved in 5% gum arabic solution and administered orally to the administration group for 4 consecutive days from the next day. The 5% gum arabic solution was orally administered to the control group. Blood was drawn from the tail vein under a non-fasting state about 24 hours after the final administration and the triglyceride level in the plasma was measured. The decrease in the plasma triglyceride level was calculated from the following formula.
Decrease (%) in plasma triglyceride level=[(mean plasma triglyceride level of control group−mean plasma triglyceride level of test compound administration group)/mean plasma triglyceride level of control group]×100

male KK-A^y mice [4] = assay: Hypoglycemic action (method B); type: in vivo, mouse; conditions: 0.1 w/w % in powder feed for 4 days, blood at day 5, non-fasting, vs control group
Protocol: The glucose level in the plasma was measured using a commercially available assay kit (glucose CII-test WAKO, Wako Pure Chemical Industries, Ltd.). The mice were grouped (5 mice per group) into a control group and an administration group, such that the mean and the standard deviation of the glucose level in the plasma of each group were nearly the same. Each test compound was admixed in a proportion of 0.1 w/w % with a powder feed (CE-2, Clea) and the feed mixture was fed to the administration group for 4 days from the next day. A regular powder feed was fed to the control group. At day 5, blood was drawn from the tail vein under a non-fasting state and the glucose level in the plasma was measured. The decrease in the plasma glucose level was calculated from the following formula.
Decrease (%) in plasma glucose level=[(mean plasma glucose level of control group−mean plasma glucose level of test compound administration group)/mean plasma glucose level of control group]×100

Cc1oc(-c2ccccc2)nc1CCOc1ccc2c(c1)CN(Cc1ccccc1)[C@H](C(=O)O)C2 [Example 2, 2-Benzyl-7-[2-(5-methyl-2-phenyloxazol-4-yl)ethoxy]-1,2,3,4-tetrahydroisoquinoline-(3S)-carboxylic acid]
Triglyceride accumulation (%) (3T3-L1 cells): 260.4%
Plasma glucose (male KK-A^y mice [1]; control 507): 313 mg/dL
Insulin (male KK-A^y mice [1]; plasma, control 43): 26 ng/mL
Decrease (%) in plasma glucose level (male KK-A^y mice [2]; dose 10 mg/kg orally): 38.3%
Decrease (%) in plasma glucose level (male KK-A^y mice [2]; dose 30 mg/kg orally): 60.6%
Decrease (%) in plasma triglyceride level (male KK-A^y mice [3]; dose 10 mg/kg orally): 39.5%
Decrease (%) in plasma triglyceride level (male KK-A^y mice [3]; dose 30 mg/kg orally): 54.3%
Decrease (%) in plasma glucose level (male KK-A^y mice [4]): 69.2%
